From patent US11161830B2, “4-pyridone compound or salt thereof, and pharmaceutical composition and formulation including same” (priority 2017, dated 2021)
pIC50: −log10 of the molar value. Read-outs that look alike come from different tables or passages of the source.

Experiments:
HBV = experiment: Test Example 1-2: anti-HBV assay in HepG2.2.15 cells (test solution 100 μL/well); type: cell-based, hepatitis B virus; conditions: culture supernatant
Experimental: Using HepG2.2.15 cells (Proc. Natl. Acad. Sci. USA, 84, 1005-1009, 1987) which have an HBV genome introduced into a hepatoblastoma cell line, HepG2, and persistently produce a virus, the anti-HBV activity of the representative compounds was evaluated in the following procedure.
(§1) The following was used as a medium:
DMEM/F-12, GlutaMAX (manufactured by Invitrogen)+5 μg/mL insulin (manufactured by Wako)+1% penicillin/streptomycin (manufactured by Sigma)+10 mmol/L HEPES (manufactured by Sigma)+50 μmol/L hydrocortisone (manufactured by Sigma)+10% FBS
A mixture of a test compound with dimethyl sulfoxide (DMSO) was further added to the medium to obtain a final concentration of DMSO of 0.25% (v/v), and thus, test solutions containing the test compound at various concentrations were prepared. In addition, a test solution obtained by adding DMSO alone to the medium to obtain a final concentration of 0.25% (v/v) was prepared as a control without addition of a drug.
(1) The HepG2.2.15 cells were suspended in the medium to prepare a. HepG2.2.15 cell suspension at 4×10^5 cells/mL. The suspension was seeded in a 96-well microtiter plate (100 μL/well) and the plate was incubated in a 5% CO2 incubator at 37° C. for 2 days.
(2) The culture supernatant was removed and the cells were washed twice with PBS (−) (100 μL/well).
(3) The test solution (200 μL/well) was added to the plate of (2) and the plate was incubated in a 5% CO2 incubator at 37° C. for 4 days.
(4) The culture supernatant was removed, the test solution (200 μL/well) was added again to the plate, and the plate was incubated in a 5% CO2 incubator at 37° C. for 3 days.
(5) The culture supernatant was collected and treated with a mixture of Buffer AL (manufactured by QIAGEN) and Proteinase K (manufactured by Invitrogen). The amount of DNA of HBV (HBV-DNA) in the obtained solution was absolutely quantified by a real-time PCR method. In addition, HBsAg (hepatitis B surface antigen) in the culture supernatant was absolutely quantified by chemiluminescent enzyme immunoassay using Lumipulse (registered trademark) HBsAg-HQ (manufactured by Fujirebio Inc.). The relative viral load (%) of a well with the compound added to a well without the compound added was calculated. An IC50 of the compound was calculated using a FORECAST function (linear regression method) of Microsoft Office Excel 2007 by plotting the logarithm of the concentration against the relative viral load as a real number.
The IC50 of HBV-DNA was defined as a concentration (or a logarithm dilution of the culture supernatant) of the compound, in which the amount of HBV-DNA is reduced by 50% as compared a control without the compound added.
In addition, the IC50 of HBsAg was defined as a concentration (or a logarithm dilution of the culture supernatant) of the compound, in which the amount of HBsAg is reduced by 50% as compared a control without the compound added.
The test was performed by the same method as in Test Example 1-1 except that the amounts of the test solutions of (3) and (4) of Test Example 1-1 was changed to 100 μL/well.

HBV (genotype CAT) = experiment: Test Example 2-2: anti-HBV assay in PXB-cells (fresh human hepatocytes); type: cell-based; conditions: Hepatitis B virus, Hepatocyte
Experimental: Using fresh human hepatocytes (PXB-cells, manufactured by PhenixBio Co., Ltd.) collected from a PXB mouse (a chimeric mouse with human hepatocytes), the anti-HBV activity of the representative compounds was evaluated in the following procedure.
as §1
DMEM (manufactured by Sigma)+0.25 μg/mL insulin (manufactured by Wako)+1% penicillin/streptomycin. (manufactured by Sigma)+20 mmol/L HEPES (manufactured by Sigma)+15 μg/mL L-proline (manufactured by Sigma)+50 nmol/L dexamethasone (manufactured by Sigma)+5 ng/mL EGF (manufactured by Peprotech)+0.1 mmol/L ascorbic acid 2-phosphate (manufactured by Wako)+10% FBS+2% DMSO
Each of the test compounds) was further added to the medium to prepare a test solution containing each of the test compounds at various concentrations.
(1) PXB-cells seeded at a seeding density of 2.1×10^5 cells/cm^2 in a 96-well microliter plate were incubated in a 5% CO2 incubator at 37° C. until a day on which the cells were infected.
(2) A HBV (genotype CAT) prepared by transfecting an HBV plasmid into an HepG2 cell was suspended in the medium containing 4% PEG-8000, and added to the plate of (1) at about 30 copies/cell such that the PXB cells were infected (100 μL/well), and the plate was incubated in a 5% CO2 incubator at 37° C. for 1 day.
(3) The culture supernatant on day 1 post infection was removed and the cells were washed three times with DMEM containing 10% FBS and 1% penicillin/streptomycin. Then, the medium was added to the plate (100 μL/well) and the plate was incubated in a 5% CO2 incubator at 37° C. for 1 day.
(4) The culture supernatant on day 2 post infection was removed and the cells were washed three times with DMEM containing 10% FBS and 1% penicillin/streptomycin. Then, the medium was added to the plate (100 μL/well) and the plate was incubated in a 5% CO2 incubator at 37° C. for 5 days.
(5) The culture supernatant on day 7 post infection was removed, the medium was added to the plate (100 μL/well), and the plate was incubated in a 5% CO2 incubator at 37° C. for 5 days.
(6) The culture supernatant on day 12 post infection was removed, the medium was added to the plate (100 μL/well), and the plate was incubated in a 5% CO2 incubator at 37° C. for 5 days.
(§2) (7) The culture supernatant on day 17 post infection was removed, the test solution was added to the plate (100 μL/well), and the plate was incubated in a 5% CO2 incubator at 37° C. for 5 days. As a control without the compound added, the medium was added to the plate (100 μL/well) and the plate was incubated in a 5% CO2 incubator at 37° C. for 5 days.
as §2, with “(8)” for “(7)”, “22” for “17”
as §2, with “(9)” for “(7)”, “27” for “17”
(10) The culture supernatant on day 32 post infection was collected.
(11) The collected culture supernatant on day 32 post infection was treated with a mixture of Buffer AL (manufactured by QIAGEN) and Proteinase K (manufactured by Invitrogen). The amount of HBV-DNA in the obtained solution was absolutely quantified by a real-time PCR method. In addition, the amount of HBsAg in the culture supernatant was absolutely quantified by chemiluminescent enzyme immunoassay using Lumipulse (registered trademark) HBsAg-HQ (manufactured by Fujirebio Inc.). A relative viral load (%) with respect to a control without the compound added was each calculated. […]

[1] = Hepatitis B virus, read-out: IC50 HBV-DNA
[2] = Hepatitis B virus, read-out: IC50 HBsAg
[3] = read-out: IC50 HBV-DNA, PXB-cells infected with HBV genotype CAT, culture supernatant on day 32 post infection
[4] = read-out: IC50 HBsAg, PXB-cells infected with HBV genotype CAT, culture supernatant on day 32 post infection

Compound: CCOC1CN(c2nc3ccc(-n4cc(C(=O)O)c(=O)cc4-c4ccc(N5CC[C@@H](OC)C5)c(F)c4)cc3s2)C1 [Example 23-6, (R)-1-(2-(3-ethoxyazetidin-1-yl)benzo[d]thiazol-6-yl)-6-(3-fluoro-4-(3-methoxypyrrolidin-1-yl)phenyl)-4-oxo-1,4-dihydropyridine-3-carboxylic acid]
- pIC50 (HBV; [1]): 9.35
- pIC50 (HBV; [2]): 8.96

Compound: CN(C)[C@@H]1CCN(c2nc3ccc(-n4cc(C(=O)O)c(=O)cc4-c4ccc(N5CCCC5)cc4)cc3s2)C1 [Example 17-2, (R)-1-(2-(3-(dimethylamino)pyrrolidin-1-yl)benzo[d]thiazol-6-yl)-4-oxo-6-(4-(pyrrolidin-1-yl)phenyl)-1,4-dihydropyridine-3-carboxylic acid]
- pIC50 (HBV (genotype CAT); [3]): > 6.30
- pIC50 (HBV (genotype CAT); [4]): > 6.30

Compound: CO[C@@H]1CCN(c2ccc(-c3cc(=O)c(C(=O)O)cn3-c3ccc4nc(N5CC[C@H](N6CCOCC6)C5)sc4c3)cc2F)C1 [Example 23-1, 6-(3-fluoro-4-((R)-3-methoxypyrrolidin-1-yl)phenyl)-1-(2-((S)-3-morpholinopyrrolidin-1-yl)benzo[d]thiazol-6-yl)-4-oxo-1,4-dihydropyridine-3-carboxylic acid]
- pIC50 (HBV; [1]): 8.77
- pIC50 (HBV; [2]): 8.37

Compound: COCCCOC1CN(c2nc3ccc(-n4cc(C(=O)O)c(=O)cc4-c4ccc(N5CC[C@@H](OC)C5)c(F)c4)cc3s2)C1 [Example 23-5]
- pIC50 (HBV; read-out: IC50 HBV-DNA): 9.30
- pIC50 (HBV; read-out: IC50 HBsAg): 8.57

Compound: CO[C@@H]1CCN(c2ccc(-c3cc(=O)c(C(=O)O)cn3-c3ccc4nc(N5CC(OC(C)C)C5)sc4c3)cc2F)C1 [Example 23-7, (R)-6-(3-fluoro-4-(3-methoxypyrrolidin-1-yl)phenyl)-1-(2-(3-isopropoxyazetidin-1-yl)benzo[d]thiazol-6-yl)-4-oxo-1,4-dihydropyridine-3-carboxylic acid]
- pIC50 (HBV; [1]): 9.19
- pIC50 (HBV; [2]): 8.96

Compound: CO[C@@H]1CCN(c2ccc(-c3cc(=O)c(C(=O)O)cn3-c3ccc4nc(N5CC(OC(F)F)C5)sc4c3)cc2F)C1 [Example 23-2, (R)-1-(2-(3-(difluoromethoxy)azetidin-1-yl)benzo[d]thiazol-6-yl)-6-(3-fluoro-4-(3-methoxypyrrolidin-1-yl)phenyl)-4-oxo-1,4-dihydropyridine-3-carboxylic acid]
- pIC50 (HBV; [1]): 9.02
- pIC50 (HBV; [2]): 8.55

Compound: CO[C@@H]1CCN(c2ccc(-c3cc(=O)c(C(=O)O)cn3-c3ccc4nc(N5CC(OCCF)C5)sc4c3)cc2F)C1 [Example 23-4]
- pIC50 (HBV; read-out: IC50 HBV-DNA): 9.06
- pIC50 (HBV; read-out: IC50 HBsAg): 8.42

Compound: COCCO[C@H]1CCN(c2ccc(-c3cc(=O)c(C(=O)O)cn3-c3ccc4nc(N5CCC[C@@H]5COC)sc4c3)cc2)C1 [Example 22-2, 6-(4-((S)-3-(2-methoxyethoxy)pyrrolidin-1-yl)phenyl)-1-(2-((R)-2-(methoxymethyl)pyrrolidin-1-yl)benzo[d]thiazol-6-yl)-4-oxo-1,4-dihydropyridine-3-carboxylic acid]
- pIC50 (HBV; [1]): 8.00
- pIC50 (HBV; [2]): 7.66

Compound: CO[C@H]1CCN(c2nc3ccc(-n4cc(C(=O)O)c(=O)cc4-c4ccc(N5CCCC5)cc4)cc3s2)C1 [Example 17-3, (S)-1-(2-(3-methoxypyrrolidin-1-yl)benzo[d]thiazol-6-yl)-4-oxo-6-(4-(pyrrolidin-1-yl)phenyl)-1,4-dihydropyridine-3-carboxylic acid]
- pIC50 (HBV (genotype CAT); [3]): > 6.30
- pIC50 (HBV (genotype CAT); [4]): > 6.30

Compound: CN(C)[C@H]1CCN(c2nc3ccc(-n4cc(C(=O)O)c(=O)cc4-c4ccc(N5CCCC5)cc4)cc3s2)C1 [Example 17-1, (S)-1-(2-(3-(dimethylamino)pyrrolidin-1-yl)benzo[d]thiazol-6-yl)-4-oxo-6-(4-(pyrrolidin-1-yl)phenyl)-1,4-dihydropyridine-3-carboxylic acid]
- pIC50 (HBV (genotype CAT); [3]): > 6.30
- pIC50 (HBV (genotype CAT); [4]): > 6.30

Compound: COCCOC1CN(c2nc3ccc(-n4cc(C(=O)O)c(=O)cc4-c4ccc(N5CC[C@@H](OC)C5)c(F)c4)cc3s2)C1 [Example 23-9]
- pIC50 (HBV; read-out: IC50 HBV-DNA): 9.17
- pIC50 (HBV; read-out: IC50 HBsAg): 8.74

Compound: COCCO[C@@H]1CCN(c2ccc(-c3cc(=O)c(C(=O)O)cn3-c3ccc4nc(N5CC[C@H](OC)C5)sc4c3)cc2)C1 [Example 21, 6-(4-((R)-3-(2-Methoxyethoxy)pyrrolidin-1-yl)phenyl)-1-(2-((S)-3-methoxypyrrolidin-1-yl)benzo[d]thiazol-6-yl)-4-oxo-1,4-dihydropyridine-3-carboxylic acid]
- pIC50 (HBV; [1]): 8.08
- pIC50 (HBV; [2]): 7.77

Compound: COCCO[C@H]1CCN(c2ccc(-c3cc(=O)c(C(=O)O)cn3-c3ccc4nc(N5CCOCC5)sc4c3)cc2)C1 [Example 22-1, (S)-6-(4-(3-(2-methoxyethoxy)pyrrolidin-1-yl)phenyl)-1-(2-morpholinobenzo[d]thiazol-6-yl)-4-oxo-1,4-dihydropyridine-3-carboxylic acid]
- pIC50 (HBV; [1]): 7.36
- pIC50 (HBV; [2]): 7.05

Compound: CO[C@@H]1CCN(c2ccc(-c3cc(=O)c(C(=O)O)cn3-c3ccc4nc(N5CC(C)(OC)C5)sc4c3)cc2F)C1 [Example 23-8, (R)-6-(3-fluoro-4-(3-methoxypyrrolidin-1-yl)phenyl)-1-(2-(3-methoxy-3-methylazetidin-1-yl)benzo[d]thiazol-6-yl)-4-oxo-1,4-dihydropyridine-3-carboxylic acid]
- pIC50 (HBV; [1]): 9.05
- pIC50 (HBV; [2]): 8.85
